# Data as given in patent US12552694B2, “Use of trivalent metals to enhance aquatic pesticide efficacy, surface water, and sediment quality while minimizing risk to aquatic biota” (SePRO Corporation, priority 2022, dated 2026).
# Read-outs that look alike come from different tables or passages of the source.
# Legend:
# [1] = Example 4: bound La and Ce over time and final pH (FIG. 1); type: physicochemical; settings: after the final samples (30 minutes), continuously stirred; control 5.6
# [2] = Example 1: capacity of additives to bind dissolved La and Ce (ICP-OES); type: physicochemical
# duckweed (Lemna spp.) = test: Example 7: duckweed plant coverage (Canopeo) after herbicides with and without La/Ce; type: in vivo; settings: for Plant coverage, 3 Days Post: 3 days post treatment; for Plant coverage, 5 Days Post: 5 days post treatment; for Plant coverage, 7 Days Post: 7 days post treatment; for Plant coverage, Pre-Treat.: prior to treatments (baseline)
# duckweed = settings: 24 hours
# Experimental: In one exemplary experiment, 16-oz cups were filled with 400 mL of well water containing approximately 100 μg-P/L as phosphate. One cup was left as the no biomass control and approximately 8 g (±0.5 g) of actively growing duckweed were added to the other cups. One cup was left as a control and diquat (as Weedtrine® D) was added to each of the other cups at the following rates: 50 μg/L. 100 μg/L, 200 μg/L, and 300 μg/L. These samples were then placed under artificial lighting with a scheduled 16-hour light period and 8-hour dark period. […] Samples then were briefly stirred and allowed to sit under the lighting. After 2 hours, water samples were collected with a syringe, filtered with a 0.22 μm nylon filter, acidified with nitric acid, and analyzed for lanthanum and cerium concentration.
# [3] = test sample: La/Ce stock in 50 mL deionized water with 90-110 mg additive
compound,measurement,setting,value
"[O]=[Mg] [Magnesium oxide, magnesium oxide]",pH of beaker,[1],8.0 (±0.1)
same,pH,[2],7.5
fluridone [Fluridone only],% Change in plant coverage,duckweed (Lemna spp.); 3 Days Post vs pre-treatment,−8%
same,% Change in plant coverage,duckweed (Lemna spp.); 5 Days Post vs pre-treatment,−15%
same,% Change in plant coverage,duckweed (Lemna spp.); 7 Days Post vs pre-treatment,−14%
same,"Plant coverage, 3 Days Post",duckweed (Lemna spp.),23%
same,"Plant coverage, 5 Days Post",duckweed (Lemna spp.),22%
same,"Plant coverage, 7 Days Post",duckweed (Lemna spp.),22%
same,"Plant coverage, Pre-Treat.",duckweed (Lemna spp.),25%
"O=C([O-])C(O)C(O)C(=O)[O-].[Na+].[Na+] (centres unmarked) [Sodium tartrate, sodium tartrate]",pH,[2],6.5
"NC(=O)CC[C@H](N)C(=O)O [Glutamine, glutamine]",pH,[2]; [3],7
"O=C([O-])CC(O)(CC(=O)[O-])C(=O)[O-].[Na+].[Na+].[Na+] [Sodium citrate, sodium citrate]",pH,[2],8
"O.O=C([O-])C(=O)[O-].[K+].[K+] [Potassium oxalate (monohydrate), potassium oxalate (monohydrate)]",pH,[2],7
"O=C([O-])[O-].[Ca+2] [Calcium carbonate, calcium carbonate]",pH,[2],7.5
"[Ca+2].[OH-].[OH-] [Calcium hydroxide, calcium hydroxide]",pH of beaker,[1],8.7 (±0.1)
same,pH,[2],14
"[Na+].[OH-] [Sodium hydroxide, sodium hydroxide]",pH,[2],14
"Cc1nn(-c2cc(CC(Cl)C(=O)O)c(Cl)cc2F)c(=O)n1C(F)F (centres unmarked) [Carfentrazone only, carfentrazone]",% Change in plant coverage,duckweed (Lemna spp.); 3 Days Post vs pre-treatment,13%
same,% Change in plant coverage,duckweed (Lemna spp.); 5 Days Post vs pre-treatment,−29%
same,% Change in plant coverage,duckweed (Lemna spp.); 7 Days Post vs pre-treatment,−17%
same,"Plant coverage, 3 Days Post",duckweed (Lemna spp.),39%
same,"Plant coverage, 5 Days Post",duckweed (Lemna spp.),24%
same,"Plant coverage, 7 Days Post",duckweed (Lemna spp.),29%
same,"Plant coverage, Pre-Treat.",duckweed (Lemna spp.),34%
"O=[Si]([O-])[O-].[Na+].[Na+] [Sodium metasilicate (anhydrous), sodium metasilicate (anhydrous)]",pH,[2]; [3],13
"C=CC(=O)[O-].[Na+] [Sodium acrylate, sodium acrylate]",pH,[2],7
"c1cc[n+]2c(c1)-c1cccc[n+]1CC2 [Diquat only, diquat]",% Change in plant coverage,duckweed (Lemna spp.); 3 Days Post vs pre-treatment,−75%
same,% Change in plant coverage,duckweed (Lemna spp.); 5 Days Post vs pre-treatment,−89%
same,% Change in plant coverage,duckweed (Lemna spp.); 7 Days Post vs pre-treatment,−92%
same,"Plant coverage, 3 Days Post",duckweed (Lemna spp.),10%
same,"Plant coverage, 5 Days Post",duckweed (Lemna spp.),4%
same,"Plant coverage, 7 Days Post",duckweed (Lemna spp.),3%
same,"Plant coverage, Pre-Treat.",duckweed (Lemna spp.),40%
same,Perceived injury,duckweed; 50 μg/L diquat,20%
same,Perceived injury,duckweed; 100 μg/L diquat,40%
same,Perceived injury,duckweed; 200 μg/L diquat,50%
same,Perceived injury,duckweed; 300 μg/L diquat,80%
copper ethanolamine [Copper ethanolamine only],% Change in plant coverage,duckweed (Lemna spp.); 3 Days Post vs pre-treatment,−2%
same,% Change in plant coverage,duckweed (Lemna spp.); 5 Days Post vs pre-treatment,−89%
same,% Change in plant coverage,duckweed (Lemna spp.); 7 Days Post vs pre-treatment,−89%
same,"Plant coverage, 3 Days Post",duckweed (Lemna spp.),35%
same,"Plant coverage, 5 Days Post",duckweed (Lemna spp.),4%
same,"Plant coverage, 7 Days Post",duckweed (Lemna spp.),4%
same,"Plant coverage, Pre-Treat.",duckweed (Lemna spp.),35%
